Measured values reported in patent publication US8937194B2, “Topical compositions containing nitro fatty acids” (Nitromega Corp., priority 2008, dated 2015).

Test: Stability of 10-nitro oleic acid (OA-NO2) in olive oil, quantified by LC-MS/MS
Type: physicochemical
Procedure: Stability experiments were conducted using Bertolli extra light olive oil. Methanol soluble impurities were extracted twice. […] Olive oil is highly hydrophobic and liposomes have been previously shown to stabilize nitrated linoleic acid. The composition of Olive oil used was as follows: total fat: 14 g, saturated fat: 9%, polyunsaturated fat: 9%, Monounsaturated Fat: 45%
First, methanol-soluble substances were extracted from olive oil by applying 6 volumes of methanol per volume of oil and vortexing for a minute. The triglyceride containing fraction was obtained and the extraction was repeated. The remaining triglycerides were dried under vacuum to eliminate remaining organic solvents. […]
At the different time points, aliquot by triplicate were obtained, fatty acids were extracted from the triglyceride matrix using a 4:1 ratio of methanol:triglyceride, diluted to a final concentration of 100 nM and quantified using liquid chromatography coupled to mass spectrometry. […] The nitrated oleic acid was detected using the multiple reaction monitoring (MRM) process in the negative ion mode performed on a 4000 QTRAP triple quadrupole (Applied Biosystems). […] The peak areas were integrated using Analyst 1.5.1 software (Applied Biosystems) and external standard curves were performed for quantification purposes.

stability in olive oil (percentage of the starting concentration) (750 μM in extracted Bertolli extra light olive oil, stored in the dark at 22° C., 37° C. and 50° C., periods of up to 20 days (FIG. 1: 19 days)): stable
decrease in stability after 135 days (750 μM in olive oil, samples incubated at 22° C., 37° C., after 135 days): about 15%
Structure (SMILES): CCCCCCCC/C(=C\CCCCCCCC(=O)O)[N+](=O)[O-] [10-nitro oleic acid]
